Measurements from publication PMC7017074 (Cancers, 2020).

How the values were obtained:
[1] = Serum drug concentration following an intravenous injection; type: in vivo, Balb/c mice
Experimental: The mice were sacrificed after 2 h and 24 h of tail-vein injection (n = 5). The organs such as the liver, kidney, heart, spleen, lungs, and brain, as well as the tumor tissues, were isolated and kept in lysis buffer (pH 7.4) and kept at −150 °C in a freezer until further analysis. Additionally, the weights of all the organs and tumor tissues were measured for quantitative analysis of the presence of drug-loaded NPs.
To determine the serum level of total drug-loaded NPs, blood samples of all the mice treated (n = 5) were collected by cardiac puncture using a 1-mL syringe with a 25G needle. A secondary method of euthanasia was performed after a cardiac puncture to sacrifice the animal. The blood samples were collected at two time points of analysis (2 h and 24 h of treatment). The blood samples were allowed to clot by leaving them at room temperature and then centrifuged at 10,000 rpm for 30 min at 4 °C to collect the supernatant serum. Afterward, 100 µL of each serum sample was collected and stored at −80 °C until it was assayed. The fluorescence emission of serum was measured using Perkin Elmer 2030 manager software attached to a 2030 multilabel reader victor X5 (Perkin Elmer) at 485/535 nm. The data were illustrated as means ± SD in RFU/100 µL of serum.

[2] = Animal biodistribution study (organ and tumor distribution of DOX); type: in vivo, Balb/c mice; conditions: for DOX in heart / DOX in kidney / DOX in liver / DOX in lungs / DOX in spleen / DOX in tumor: 4T1 tumor mice, IV DOX 5 mg/kg
Experimental: Organs were homogenized and lysed with a lysis reagent (sodium fluoride and stable stock lysis buffer). The mixture was centrifuged at 8000 rpm at 4 °C for 50 min. The supernatant was collected in 1.5-mL microcentrifuge tubes. […] The data were presented as means ± SD in relative fluorescence units (RFU)/mg of organ weight.

[3] = test system: 4T1 cells; assay: Tumor regression study in murine breast cancer model; type: in vivo, Balb/c mice
[4] = tumor-bearing mice, 25 days, vs untreated group; CYP 0.3 mg/kg BW

## COc1cccc2c1C(=O)c1c(O)c3c(c(O)c1C2=O)C[C@@](O)(C(=O)CO)C[C@@H]3O[C@H]1C[C@H](N)[C@H](O)[C@H](C)O1 [Free DOX, doxorubicin]
[1]; 2 h, Supplementary Table 3
  serum drug concentration, 2 h (%): 2.02%
[1]; 24 h, Supplementary Table 3
  serum drug concentration, 24 h (%): 1.71%
[1]; DOX 5 mg/kg, 2 h
  serum drug concentration, 2 h: 110.53 ± 11.83 ng/100 μL
[1]; DOX 5 mg/kg, 2 h (Figure 6)
  blood serum fluorescence, 2 h: 1008.3 ± 431.41 RFU/100 µL
[1]; DOX 5 mg/kg, 24 h
  serum drug concentration, 24 h: 93.74 ± 3.89 ng/100 μL
[2]; 2 h
  DOX in heart: 2.86 ± 0.23 ng/mg
  DOX in kidney: 1.45 ± 0.01 ng/mg
  DOX in liver: 0.3 ± 0.01 ng/mg
  DOX in lungs: 0.11 ± 0.01 ng/mg
  DOX in spleen: 0.13 ± 0.01 ng/mg
  DOX in tumor: 0.37 ± 0.01 ng/mg
[2]; 2 h, listed as free DOX
  DOX in tumor: 0.37 ± 0.002 ng/mg
[2]; 24 h
  DOX in heart: 4.28 ± 0.63 ng/mg
  DOX in kidney: 1.45 ± 0.01 ng/mg
  DOX in liver: 1.18 ± 0.31 ng/mg
  DOX in lungs: 0.14 ± 0.01 ng/mg
  DOX in spleen: 0.14 ± 0.01 ng/mg
  DOX in tumor: 0.37 ± 0.01 ng/mg
[2]; 2 h, Supplementary Table 1
  organ distribution, brain (%): 0.13%
  organ distribution, heart (%): 0.41%
  organ distribution, kidney (%): 0.42%
  organ distribution, liver (%): 0.35%
  organ distribution, lungs (%): 0.08%
  organ distribution, spleen (%): 0.08%
  organ distribution, tumor (%): 0.08%
[2]; 24 h, Supplementary Table 2
  organ distribution, brain (%): 0.47%
  organ distribution, heart (%): 0.62%
  organ distribution, kidney (%): 0.42%
  organ distribution, liver (%): 1.38%
  organ distribution, lungs (%): 0.08%
  organ distribution, spleen (%): 0.08%
  organ distribution, tumor (%): 0.08%

## O=P1(N(CCCl)CCCl)NCCCO1 (stereo not drawn) [free CYP, cyclophosphamide]
[3]; day 14 after tumor inoculation, when first treatment was administered
  tumor size at first treatment: 145.89 ± 33.53 mm^3
[3]; day 27
  tumor size, times less than the untreated group: ~3.5
[3]; day 27, IV, three doses every two days from day 14, CYP 0.3 mg/kg where drug present
  tumor size: 633.33 ± 121.16 mm^3
[4]
  body weight gain / visible toxicity: significantly slowed the gain
